Reference: patent US4945162A, “Novel radioactive propyl 2-iodospiroperidol and processes for the preparation thereof” (Sumitomo Chemical Company, Limited, priority 1986, dated 1990)

Molecular target: T1, Dopamine Receptors (Rat Striatal Membranes) (Rattus norvegicus, UniProt P61169)
T1 construct: For ^3 H-SP to Rat Striatal Membranes; from tissue; host or cells: rat striatum (membranes)
Test: Inhibition of specific ^3 H-SP binding (dopamine receptor binding affinity) to rat striatal membranes
Details: for Ki / IC50: 23° C., 30 minutes, ketanserine present; for IC50: nonspecific binding with (+)butaclamol, triplicate; for Relative Potency: relative to 2-ISP = 100
Protocol: PISP, 2-ISP and MISP were screened as for the dopamine receptor binding affinity according to the method reported by Hamblin [Biochem. Pharmacol. 33, 877-887 (1984)]. An aliquot of striatal membrane preparations was incubated at 23° C. for 30 minutes with each of the unlabeled competing drugs (PISP, 2-ISP and MISP) in different concentration, ketanserine and ^3 H-spiroperidol (hereinafter referred to as ^3 H-SP). The incubation was terminated by adding ice-cold TEAN buffer followed by a rapid filtration through a Whatman GF/B filter. The bound ^3 H-SP retained on the filter was extracted with ACS II (Amersham) and counted. All incubations were done in triplicate. Nonspecific binding was determined in tubes containing (+)butaclamol. Specific binding was calculated by subtracting the nonspecific binding from the total binding. IC50 values, the concentrations of the tested compounds that cause 50% inhibition of the specific ^3 H-SP binding, were assessed using from six to eight samples at different concentrations, in triplicate.

T1 sequence (P61169 whole entry): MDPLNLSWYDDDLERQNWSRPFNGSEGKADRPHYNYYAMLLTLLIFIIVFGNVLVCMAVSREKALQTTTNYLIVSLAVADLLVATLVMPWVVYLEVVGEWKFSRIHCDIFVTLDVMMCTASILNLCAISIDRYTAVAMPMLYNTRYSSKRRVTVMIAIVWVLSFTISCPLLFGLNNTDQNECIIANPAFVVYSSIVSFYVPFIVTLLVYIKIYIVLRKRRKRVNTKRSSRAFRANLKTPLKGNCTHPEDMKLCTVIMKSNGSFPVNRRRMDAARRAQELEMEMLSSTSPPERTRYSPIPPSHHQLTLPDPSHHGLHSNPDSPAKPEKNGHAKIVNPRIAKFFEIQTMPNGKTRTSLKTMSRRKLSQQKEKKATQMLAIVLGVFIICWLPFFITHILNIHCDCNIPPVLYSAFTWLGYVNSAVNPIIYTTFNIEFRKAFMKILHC

| SMILES | Ki [nM] | IC50 [nM] | Relative Potency |
| --- | --- | --- | --- |
| CCCN1CN(c2ccccc2)C2(CCN(CCCC(=O)c3ccc(F)cc3I)CC2)C1=O [PISP, 8-[4-(4-fluoro-2-iodophenyl)-4-oxobutyl]-3-propyl-1-phenyl-1,3,8-triazaspiro[4.5]decan-4-one] | 0.2 | 2.5 | 500 |
| O=C(CCCN1CCC2(CC1)C(=O)NCN2c1ccccc1)c1ccc(F)cc1I [2-ISP, 2-iodospiroperidol] | 1 | 11 | 100 |
| CN1CN(c2ccccc2)C2(CCN(CCCC(=O)c3ccc(F)cc3I)CC2)C1=O [MISP, methyl 2-iodospiroperidol] | 5 | 55 | 20 |
